Like-named read-outs stand apart in the source and are kept apart here.

The test system of the test is P. falciparum K1. The experiment in a line: Blood-stage antiplasmodial evaluation (SYBR Green I fluorescence, 72 h). Format: cell-based, Plasmodium falciparum. The following applies: for EC50 / IC50: Plasmodium falciparum; for EC50: K1, 72 h, read-out: P. falciparum K1 EC50; for IC50: erythrocytic stage P. falciparum K1, read-out: IC50 (activity on Pf. K1). As to the method:
A K1 culture-adapted P. falciparum strain resistant to chloroquine, pyrimethamine, and proguanil was used in an in vitro culture. It was maintained in a continuous culture, as described previously by Trager and Jensen. Cultures were maintained in fresh A+ human erythrocytes at 2.5% hematocrit in a complete medium (RPMI 1640 with 25 mM HEPES, 25 mM NaHCO3, and 10% of A+ human serum) at 37 °C under a reduced O2 atmosphere (gas mixture: 10% O2, 5% CO2, and 85% N2). Parasitemia was maintained daily between 1 and 3%. The P. falciparum drug susceptibility test was carried out by comparing quantities of DNA in treated and control cultures of parasite in human erythrocytes, according to a SYBR Green I fluorescence-based method using a 96-well fluorescence plate reader. Compounds, previously dissolved in DMSO (final concentration less than 0.5% v/v), were incubated in a total assay volume of 200 μL (RPMI, 2% hematocrit and 0.4% parasitemia) for 72 h in a humidified atmosphere (10% O2 and 5% CO2) at 37 °C, in 96-well flat bottom plates. Duplicate assays were performed for each sample. After incubation, plates were frozen at […] for 24 h. Then, the frozen plates were thawed for 1 h at 37 °C. A total of 15 μL of each sample was transferred to 96-well flat-bottom non-sterile black plates (Greiner Bio-One, Kremsmünster, Austria) already containing 15 μL of the SYBR Green I lysis buffer (2X SYBR Green I, 20 mM Tris base pH 7.5, 20 mM EDTA, 0.008% w/v saponin, 0.08% w/v Triton X-100). Negative control treated by solvents (DMSO or H2O) and positive controls (chloroquine) were added to each set of experiments. Plates were incubated for 15 min at 37 °C and then read on a TECAN Infinite F-200 spectrophotometer with excitation and emission wavelengths at 485 and 535 nm, respectively. The concentrations of compounds required to induce a 50% decrease in parasite growth (EC50 K1) were calculated from three independent experiments.

The mark [1] stands for this setting: asexual blood stages, drug-resistant K1 strain, 72 h incubation, mean ± SD of three independent experiments.

The EC50 is the concentration needed to bring the measured effect to its halfway point. Regarding `CCN(CC)CCCC(C)Nc1ccnc2cc(Cl)ccc12` (centres unmarked) [Chloroquine, reference compound], the EC50 came to 0.8 ± 0.1 µM.

As to `COc1nc(NC(C)(C)C)nc2cc(-c3ccc(C)cc3)sc12` [Compound 7a, N-(tert-butyl)-4-methoxy-6-(p-tolyl)thieno[3,2-d]pyrimidin-2-amine], the EC50 under setting [1] was determined as 7.6 ± 0.9 µM.

With `CCOc1nc(NC(C)(C)C)nc2cc(-c3ccc(C)cc3)sc12` [Compound 7b, N-(tert-butyl)-4-ethoxy-6-(p-tolyl)thieno[3,2-d]pyrimidin-2-amine], the EC50 under setting [1] was 5.1 ± 1.3 µM.

For `Cc1ccc(-c2cc3nc(NC(C)(C)C)nc(Oc4ccccc4)c3s2)cc1` [Compound 8a, N-(tert-butyl)-4-phenoxy-6-(p-tolyl)thieno[3,2-d]pyrimidin-2-amine], under setting [1], the EC50 is over 10 µM.

As for `Cc1ccc(Oc2nc(NC(C)(C)C)nc3cc(-c4ccc(C)cc4)sc23)cc1` [Compound 8b, N-(tert-butyl)-6-(p-tolyl)-4-(p-tolyloxy)thieno[3,2-d]pyrimidin-2-amine], under setting [1], the EC50 is over 10 µM.

Take `Cc1ccc(-c2cc3nc(NC(C)(C)C)nc(Sc4ccccc4)c3s2)cc1` [Compound 9a, N-(tert-butyl)-6-(p-tolyl)-4-(phenylthio)thieno[3,2-d]pyrimidin-2-amine]: under setting [1], the EC50 was found to be 13.8 ± 1.7 µM.

As to `Cc1ccc(Sc2nc(NC(C)(C)C)nc3cc(-c4ccc(C)cc4)sc23)cc1` [Compound 9b, N-(tert-butyl)-6-(p-tolyl)-4-(p-tolylthio)thieno[3,2-d]pyrimidin-2-amine], the EC50 under setting [1] worked out at 16.4 ± 1.9 µM.

Usually IC50 stands for the concentration at which inhibition is half-maximal. Take `Cc1ccc(-c2cc3nc(NC(C)(C)C)nc(NC(C)C)c3s2)cc1` [Compound 10e, N^2-(tert-butyl)-N^4-isopropyl-6-(p-tolyl)thieno[3,2-d]pyrimidine-2,4-diamine]: the 50% inhibitory concentration (IC50) was about 2000 nM. Further, the EC50 under setting [1] is 2.4 ± 1 µM.

Regarding `Cc1ccc(-c2cc3nc(NC(C)(C)C)nc(Nc4ccccc4)c3s2)cc1` [Compound 10h, N^2-(tert-butyl)-N^4-phenyl-6-(p-tolyl)thieno[3,2-d]pyrimidine-2,4-diamine], under setting [1], the EC50 turned out to be 2 ± 0.4 µM and the “P. falciparum K1 EC50” value is “some activity was maintained”.

In the case of `Cc1ccc(-c2cc3nc(NC(C)(C)C)nc(NN)c3s2)cc1` [Compound 10i, N-(tert-butyl)-4-hydrazino-6-(p-tolyl)thieno[3,2-d]pyrimidin-2-amine], the concentration for half-maximal inhibition (IC50) was about 2000 nM. In addition, the half-maximal effective concentration (EC50) under setting [1] is 2.2 ± 0.3 µM.

Regarding `Cc1ccc(-c2cc3nc(NC(C)(C)C)nc(N[C@@H](C)C(=O)[O-])c3s2)cc1.O.O.O.[Na+]` [Compound 10j, Sodium (S)-2-((2-(Tert-butylamino)-6-(p-tolyl)thieno[3,2-d]pyrimidin-4-yl)amino)-propanoate trihydrate], the half-maximal effective concentration (EC50) is over 12.5 µM. The “P. falciparum K1 EC50” value under setting [1] is “loss of activity”.

For the compound `Cc1ccc(-c2cc3nc(NC(C)(C)C)nc(-c4ccc(C)cc4)c3s2)cc1` [Compound 11a, N-(tert-butyl)-4,6-di-p-tolylthieno[3,2-d]pyrimidin-2-amine], the concentration for a half-maximal effect (EC50) under setting [1] was over 31 µM.

Turning to `Cc1ccc(-c2cc3nc(NC(C)(C)C)nc(-c4cccc(C)c4)c3s2)cc1` [Compound 11b, N-(tert-butyl)-4-(m-tolyl)-6-(p-tolyl)thieno[3,2-d]pyrimidin-2-amine], under setting [1], the half-maximal effective concentration (EC50) is over 31 µM.

As for `Cc1ccc(-c2cc3nc(NC(C)(C)C)nc(-c4ccccc4)c3s2)cc1` [Compound 11c, N-(tert-butyl)-4-phenyl-6-(p-tolyl)thieno[3,2-d]pyrimidin-2-amine], the EC50 under setting [1] is over 25 µM.

In the case of `Cc1ccc(-c2cc3nc(NC(C)(C)C)nc(-c4ccsc4)c3s2)cc1` [Compound 11d, N-(tert-butyl)-4-(thiophen-3-yl)-6-(p-tolyl)thieno[3,2-d]pyrimidin-2-amine], the 50% effective concentration (EC50) under setting [1] is over 25 µM.

Take `Cc1ccc(-c2cc3nc(NC(C)(C)C)nc(-c4ccncc4)c3s2)cc1` [Compound 11e, N-(tert-butyl)-4-(pyridin-4-yl)-6-(p-tolyl)thieno[3,2-d]pyrimidin-2-amine]: the EC50 under setting [1] was 28.1 ± 7 µM.

These data come from paper PMC9323797, “4-Substituted Thieno[3,2-d]pyrimidines as Dual-Stage Antiplasmodial Derivatives” (Pharmaceuticals, 2022).
